Laboratory results published in patent publication US20250057864A1, “COMPOSITION FOR IMPROVING EXERCISE PERFORMANCE COMPRISING GYPENOSIDE COMPOUND AS ACTIVE INGREDIENT” (BTC CORPORATION, priority 2022, published 2025).

Tested on: C2C12 cells
Assay: Intracellular ROS production in C2C12 cells (DCF-DA)
Assay type: cell-based, mice
Settings: oxidative stress by 50 μM TBHP, 1 h pretreatment with test substance
Protocol: C2C12 cells were dispensed into a 96-well plate at 1×10^4 cells/well and stabilized for 24 hours. Subsequently, the cells were cultured for 1 hour after exchanging with the culture medium with the myocyte differentiation medium containing each test substance. After 1 hour, the cells were washed with PBS and cultured further for 3 hours with a culture medium containing 50 μM tert-butyl hydrogen peroxide (TBHP), and the ROS level in the cells was measured using a DCF-DA assay kit (Abcam) according to the manufacturer's method.
In order to investigate the effect of each of the compositions according to Examples 1 to 4 on ROS production in C2C12 cells, ROS production was measured using 2′,7′-dichlorofluorescin diacetate (DCF-DA). DCF-DA was measured using the principle that it is oxidized by ROS in cells and is converted to DCF, which emits fluorescence.

CC(C)=CCC[C@](C)(O)C1CC[C@]2(C)C1[C@H](O)CC1[C@@]3(C)C[C@@H](O)C(OC4OC(CO)C(O)C(O)C4OC4OC(CO)C(O)C(O)C4O)C(C)(C)C3CC[C@]12C (stereo partly shown) [Example 1, Gypenoside L]
ROS production (fluorescence intensity): 22.12 ± 0.70 fluorescence intensity
